From US9328360B2, “Conversion of glycerol to 1,3-propanediol under haloalkaline conditions” (The Curators of the University of Missouri, priority 2013, dated 2016)

Key:
Type in all cases: cell-based, Halanaerobium hydrogeniformans
H. hydrogeniformans [1] = assay: Tolerance of H. hydrogeniformans to 1,3-propanediol (growth by turbidity); conditions: for Growth: 30 mM glycerol
Method: (§1) The tolerance of H. hydrogeniformans to increasing concentrations of 1,3-propanediol was examined. Anaerobic cultures were prepared in 160 mL serum bottles. The medium was prepared by boiling to degas under a N2 blanket. As the medium cooled, reductant stock mix was added to the media that contained 0.75 g Na2S and 0.6 g cysteine per liter. Once the media was cooled, the flasks were transferred into a Coy anaerobic glove bag where the 50 mL of media was dispensed into 160 mL serum bottles filled and autoclaved (121° C., 20 min). After autoclaving, the headspace gas was exchanged for 80% N2/20% CO2 mixture. The bottles then were inoculated with a 10% inoculum from previous stock cultures and amended with 30 mM glycerol. Sterilized 1,3-propanediol was added to the serum bottles to achieve 10, 30, 60, 120, 380, and 750 mM. Growth was examined by turbidity readings taken at […].

H. hydrogeniformans [2] = assay: Requirement of B12: 1,3-propanediol production from 30 mM glycerol over a vitamin B12 gradient (HPLC); conditions: for Percent mole/mole conversion of glycerol to 1,3-propanediol / 1,3-propanediol produced: 30 mM glycerol
Method: Anaerobic cultures were prepared in 160 mL serum bottles. The medium was prepared by boiling to degas under a N2 blanket. As the medium cooled, reductant stock mix was added to the media that contained 0.75 g Na2S and 0.6 g cysteine per liter. Once the media was cooled, the flasks were transferred into a Coy anaerobic glove bag where the 50 mL of media was dispensed into 160 mL serum bottles filled and autoclaved (121° C., 20 min). After autoclaving, the headspace gas was exchanged for 80% N2/20% CO2 mixture. The bottles then were inoculated with a 10% inoculum from previous stock cultures. 30 mM glycerol was added. Vitamin B12 supplementation from anaerobic, filter-sterilized stocks were added right before inoculation at 0 μg/L, 25 μg/L, 50 μg/L, 75 μg/L, and 100 μg/L.
Samples were taken every 24 hours. 5 mL syringes were degassed with N2/CO2 mix, and 1 mL of culture sample was removed for each of the sample periods. The sample was placed in a 1.5 mL Eppendorf tube, and centrifuged for 5 min at 13,000×g. The supernatant was decanted into another 1.5 mL Eppendorf tube, and frozen for HPLC analysis.
For HPLC analysis, filter sterilized samples ([…] PTFE filters) were injected onto a 300×7.8 mm Aminex HPX-87H column (BioRad, Hercules, Calif.) maintained at 50° C. The mobile phase was 2.5 mM H2SO4 maintained at a constant flow rate of 0.6 ml/min and at approximately 2.2 MPa. Detection was done with both a UV 231 (at 210 nm) and refractive index monitor.

H. hydrogeniformans [3] = assay: Tolerance of H. hydrogeniformans to glycerol (growth by turbidity); conditions: 7% NaCl, pH 11
Method: as §1, with “to” for “to increasing”, “glycerol” for “1,3-propanediol”, “cultures.” for “cultures and amended with 30 mM glycerol.”, “7.5, 15,” for “10,”, “240, 480, 960,” for “380,”, “1920” for “750”

**Q.** Which results are given for OCCCO [1,3-propanediol]?
**A.** Growth (H. hydrogeniformans [1]; 1,3-propanediol 10 mM): capable of growth; Growth (H. hydrogeniformans [1]; 1,3-propanediol 30 mM): capable of growth; Growth (H. hydrogeniformans [1]; 1,3-propanediol 60 mM): capable of growth; Growth (H. hydrogeniformans [1]; 1,3-propanediol 120 mM): capable of growth; Growth (H. hydrogeniformans [1]; 1,3-propanediol 380 mM): capable of growth; 1,3-propanediol concentration at which growth is possible (H. hydrogeniformans [1]; 7% NaCl, pH 11): 380 mM; 1,3-propanediol concentration tolerated (H. hydrogeniformans [1]; in addition to 7% (w/v) and pH 11): at least 0.38 M

**Q.** Which results are given for OCC(O)CO [Glycerol, glycerol]?
**A.** Percent mole/mole conversion of glycerol to 1,3-propanediol (H. hydrogeniformans [2]; B12 amendment 0 μg/L): 31.5 % mol 1,3-propandiol/mol glycerol; conversion rate (H. hydrogeniformans [2]; absence of B12): 31%; 1,3-propanediol produced (H. hydrogeniformans [2]; no vitamin B12 provided): approximately 8.5 mM; Growth (H. hydrogeniformans [3]; Glycerol 7.5 mM): capable of growth; Growth (H. hydrogeniformans [3]; Glycerol 15 mM): capable of growth; Growth (H. hydrogeniformans [3]; Glycerol 30 mM): capable of growth; Growth (H. hydrogeniformans [3]; Glycerol 60 mM): capable of growth; Growth (H. hydrogeniformans [3]; Glycerol 120 mM): capable of growth; Growth (H. hydrogeniformans [3]; Glycerol 240 mM): capable of growth; Growth (H. hydrogeniformans [3]; Glycerol 480 mM): capable of growth; Growth (H. hydrogeniformans [3]; Glycerol 960 mM): capable of growth; Growth (H. hydrogeniformans [3]; Glycerol 1920 mM): capable of growth

**Q.** For vitamin B12, which “Percent mole/mole conversion of glycerol to 1,3-propanediol” value (from here on “Percent mole/mole conversion of glycerol”) (H. hydrogeniformans [2]; B12 amendment 25 μg/L) is on record?
**A.** Its value is 59.1 % mol 1,3-propandiol/mol glycerol.

**Q.** What about the “Percent mole/mole conversion of glycerol” value (H. hydrogeniformans [2]; B12 amendment 50 μg/L) of the same molecule?
**A.** The value was 60.3 % mol 1,3-propandiol/mol glycerol.

**Q.** What about the “Percent mole/mole conversion of glycerol” value (H. hydrogeniformans [2]; B12 amendment 75 μg/L) of the same molecule?
**A.** Its value is 60.1 % mol 1,3-propandiol/mol glycerol.

**Q.** What about the “Percent mole/mole conversion of glycerol” value (H. hydrogeniformans [2]; B12 amendment 100 μg/L) of the same molecule?
**A.** Its value is 60.2 % mol 1,3-propandiol/mol glycerol.

**Q.** What about the conversion rate (H. hydrogeniformans [2]; B12 supplementation >25 μg/L) of the same molecule?
**A.** Its conversion rate is “approximately 60%”.

**Q.** And the “1,3-propanediol produced” value (H. hydrogeniformans [2]; culture amended with 25, 50, 75, or 100 μg/L vitamin B12)?
**A.** The value was “Approximately 16.5 mM”.
